Assay [1] deals with T1, AcerOR11 (Apis cerana, UniProt A0A3G2FPT9).
T1 construct: full-length ORF, Drosophila codon-optimized synthetic gene (pUAST.attB, locus 51C); expressed in Drosophila at1 OSNs in place of DmelOR67d, with endogenous fly Orco and GCaMP6m; same length as the other OR11
T1 sequence (A0A3G2FPT9 1-394): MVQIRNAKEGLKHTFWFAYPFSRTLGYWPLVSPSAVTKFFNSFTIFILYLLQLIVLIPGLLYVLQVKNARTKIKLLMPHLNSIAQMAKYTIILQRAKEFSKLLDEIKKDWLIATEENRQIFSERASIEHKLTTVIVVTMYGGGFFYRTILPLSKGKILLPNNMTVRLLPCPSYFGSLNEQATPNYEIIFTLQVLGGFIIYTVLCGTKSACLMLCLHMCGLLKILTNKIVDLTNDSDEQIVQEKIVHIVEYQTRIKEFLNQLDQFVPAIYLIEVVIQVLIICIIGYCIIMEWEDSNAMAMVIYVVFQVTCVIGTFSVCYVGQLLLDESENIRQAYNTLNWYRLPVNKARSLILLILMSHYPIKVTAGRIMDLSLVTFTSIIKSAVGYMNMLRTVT
In words: transcuticular GCaMP6m calcium imaging of Drosophila antenna, single-dose screen. The note with it: agonist; 100 μg on filter paper; 1 s stimulus; solvent 2-propanol. The class given is cell-based.

Assay [2] concerns the target T1, AcerOR11. The assay is described as follows: transcuticular GCaMP6m calcium imaging of Drosophila antenna, dose-response. The conditions noted are these: agonist; airborne odorant, unit is dose loaded on filter paper, not a concentration; 1 s stimulus; solvent 2-propanol. It is filed as cell-based.
The test system of assay [3] is T2, AflorOR11.
T2 construct: gene OR11; full-length ORF, Drosophila codon-optimized synthetic gene (pUAST.attB, locus 51C); expressed in Drosophila at1 OSNs in place of DmelOR67d, with endogenous fly Orco and GCaMP6m; same length as the other OR11
The assay is described as above. The conditions noted are these: agonist; airborne odorant, unit is dose loaded on filter paper, not a concentration; 1 s stimulus; solvent 2-propanol. The class given is cell-based, Apis florea.

Assay [4] deals with T3, AdorOR11.
T3 construct: gene OR11; full-length ORF, Drosophila codon-optimized synthetic gene (pUAST.attB, locus 51C); expressed in Drosophila at1 OSNs in place of DmelOR67d, with endogenous fly Orco and GCaMP6m; same length as the other OR11
The assay is described as above. It is filed as cell-based, Apis dorsata. The note with it: agonist; airborne odorant, unit is dose loaded on filter paper, not a concentration; 1 s stimulus; solvent 2-propanol.

The target in assay [5] is T4, AmelOR11 (Apis mellifera, UniProt A0A7M6UWX0).
T4 construct: gene Or11; full-length ORF, Drosophila codon-optimized synthetic gene (pUAST.attB, locus 51C); expressed in Drosophila at1 OSNs in place of DmelOR67d, with endogenous fly Orco and GCaMP6m; same length as the other OR11
T4 sequence (A0A7M6UWX0 1-394): T1 sequence (A0A3G2FPT9 1-394) with V36F, I47T, L50F, Q52E, A69P, I112L, I228V, V229M, I239V, N345K
The description is as above. It is filed as cell-based. The note with it: agonist; airborne odorant, unit is dose loaded on filter paper, not a concentration; 1 s stimulus; solvent 2-propanol.

Residue numbers refer to the chain shown, from its start.

Take `CC(=O)CCC=C(C)C` [6-methyl-5-hepten-2-one]: the “calcium response (ΔF/F0)” value in assay [1] is given as “AcerOR11 responded to a third secondary ligand: 6-methyl-5-hepten-2-one”.
For `CC(=O)CCCCC/C=C/C(=O)O` [9-ODA, 9-oxo-(E)-2-decenoic acid], the EC50 in assay [2] was determined as 174.8 ± 26.05 µg; in assay [3], 175.8 ± 29.59 µg; in assay [4] it was 173.4 ± 22.22 µg; in assay [5] it was 160.5 ± 28.46 µg.
With `CCCC(=O)C(=O)O` [2-oxovaleric acid], the figures for the EC50 in assay [2], in assay [4] and in assay [5] were 208.5 ± 39.57 µg, 139.3 ± 28.55 µg and 84.26 ± 15.52 µg, respectively.
The matching figures for `CCC/C=C/C(=O)O` [trans-2-hexenoic acid]: 105.8 ± 9.62 µg, 124.2 ± 9.58 µg and 239.2 ± 72.06 µg.

For the origin of these results see publication PMC11602622, “Evolution of queen pheromone receptor tuning in four honeybee species (Hymenoptera, Apidae, Apis)” (iScience, 2024).
